Bounds are passed on as bounds.

The first assay deals with T1, purified human HDAC6 (Homo sapiens, UniProt Q9UBN7).
T1 construct: purchased BPS Bioscience 5006
T1 sequence (Q9UBN7 1-1215): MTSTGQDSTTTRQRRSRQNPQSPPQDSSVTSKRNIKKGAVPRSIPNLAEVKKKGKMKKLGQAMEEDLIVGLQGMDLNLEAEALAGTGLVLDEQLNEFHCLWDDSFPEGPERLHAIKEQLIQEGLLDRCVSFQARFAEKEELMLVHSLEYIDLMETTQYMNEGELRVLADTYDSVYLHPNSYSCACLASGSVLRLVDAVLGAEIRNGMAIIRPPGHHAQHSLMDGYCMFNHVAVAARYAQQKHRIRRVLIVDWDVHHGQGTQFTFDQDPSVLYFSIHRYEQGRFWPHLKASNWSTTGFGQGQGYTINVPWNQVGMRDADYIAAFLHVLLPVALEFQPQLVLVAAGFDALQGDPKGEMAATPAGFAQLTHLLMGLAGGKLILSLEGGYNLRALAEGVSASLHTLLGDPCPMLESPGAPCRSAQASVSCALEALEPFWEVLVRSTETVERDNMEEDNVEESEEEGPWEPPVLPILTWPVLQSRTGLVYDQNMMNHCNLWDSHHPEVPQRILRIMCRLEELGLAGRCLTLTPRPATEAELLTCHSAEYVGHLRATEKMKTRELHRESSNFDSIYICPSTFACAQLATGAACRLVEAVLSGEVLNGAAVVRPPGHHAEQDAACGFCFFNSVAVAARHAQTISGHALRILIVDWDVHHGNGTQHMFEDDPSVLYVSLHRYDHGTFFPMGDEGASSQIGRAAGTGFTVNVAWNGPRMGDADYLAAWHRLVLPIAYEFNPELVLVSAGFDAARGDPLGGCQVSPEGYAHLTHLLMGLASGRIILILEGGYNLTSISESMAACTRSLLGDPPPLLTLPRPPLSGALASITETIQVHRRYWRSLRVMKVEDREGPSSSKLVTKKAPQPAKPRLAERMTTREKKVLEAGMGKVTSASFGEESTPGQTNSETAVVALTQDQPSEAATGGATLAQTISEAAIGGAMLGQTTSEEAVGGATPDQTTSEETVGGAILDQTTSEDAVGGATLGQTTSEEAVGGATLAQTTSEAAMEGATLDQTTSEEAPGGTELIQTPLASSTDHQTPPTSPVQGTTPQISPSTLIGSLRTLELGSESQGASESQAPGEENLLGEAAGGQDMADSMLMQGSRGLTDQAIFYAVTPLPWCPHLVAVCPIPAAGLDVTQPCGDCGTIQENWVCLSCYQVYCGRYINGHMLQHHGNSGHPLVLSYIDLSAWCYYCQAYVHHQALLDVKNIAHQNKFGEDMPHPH
The experiment in a line: HDAC6 Enzyme Assay. The following applies: bin: greater than 500 nM and less than 1 μM (lower bound in nM, upper bound in μM). The class given is biochemical. In outline:
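Deacetylated product quantified after trypsin digestion as released AMC (340/460 nm), following a 1 h, 30 °C reaction of human HDAC6 with Ac-RGK(Ac)-AMC peptide, quenched by trichostatin A. IC50 derived from DMSO-normalized curves.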
In turn, `CCc1cc(C(=O)NC(C)c2cccc(C(=O)NO)c2)n(C)n1` (centres unmarked) [Compound I-216, 3-ethyl-N-(1-{3-[(hydroxyamino)carbonyl]phenyl}ethyl)-1-methyl-1H-pyrazole-5-carboxamide] had an IC50 of 500 to 1000 nM.

The same assay, now with this note: bin: greater than 1 μM.
With `Cn1nc2c(c1C(=O)NC(c1ccc(C(=O)NO)cc1)C(C)(C)C)CCCC2` (centres unmarked) [Compound I-211, N-(1-{4-[(hydroxyamino)carbonyl]phenyl}-2,2-dimethylpropyl)-2-methyl-4,5,6,7-tetrahydro-2H-indazole-3-carboxamide], the IC50 was greater than 1000 nM.
On the same count and under the same terms, the value for `CC(NC(=O)CC12CC3CC(CC(C3)C1)C2)c1ccc(C(=O)NO)cc1` (centres unmarked) [Compound I-212] was greater than 1000 nM; that for `Cc1nc(CC(=O)NC(C)c2ccc(C(=O)NO)cc2)c(C)s1` (centres unmarked) [Compound I-217, 4-(1-{[(2,5-dimethyl-1,3-thiazol-4-yl)acetyl]amino}ethyl)-N-hydroxybenzamide] was greater than 1000 nM.
Still for that read-out and setting: the value for `Cc1noc(C)c1C(=O)NC(C)c1cccc(C(=O)NO)c1` (centres unmarked) [Compound I-218, N-(1-{3-[(hydroxyamino)carbonyl]phenyl}ethyl)-3,5-dimethylisoxazole-4-carboxamide] was greater than 1000 nM.
As to `Cn1c(C(=O)N[C@@H](c2ccc(C(=O)NO)cc2)C(F)(F)F)cc2oc(-c3ccccc3)cc21` [Compound I-231, 4-methyl-2-phenyl-N-((1S)-2,2,2-trifluoro-1-{4-[(hydroxyamino)carbonyl]phenyl}ethyl)-4H-furo[3,2-b]pyrrole-5-carboxamide], the concentration for half-maximal inhibition (IC50) was greater than 1000 nM.
Still for that read-out and setting: under `Cc1oc(-c2ccccc2)nc1CC(=O)NC(C)c1cccc(C(=O)NO)c1` (centres unmarked) [Compound I-234, N-hydroxy-3-(1-{[(5-methyl-2-phenyl-1,3-oxazol-4-yl)acetyl]amino}ethyl)benzamide] stands greater than 1000 nM; under `Cc1noc(C)c1C(=O)NC(c1ccc(C(=O)NO)cc1)C(C)C` (centres unmarked) [Compound I-238, N-(1-{4-[(hydroxyamino)carbonyl]phenyl}-2-methylpropyl)-3,5-dimethylisoxazole-4-carboxamide], greater than 1000 nM.

Staying with this assay, now noted: purified human HDAC6, substrate Ac-Arg-Gly-Lys(Ac)-AMC, 1 hour at 30° C.; reported as bins.
As for `C[C@@H](NC(=O)C12CC3CC(CC(C3)C1)C2)c1ccc(C(=O)NO)cc1` [Compound I-209, N-((1R)-1-{4-[(hydroxyamino)carbonyl]phenyl}ethyl)adamantane-1-carboxamide], the IC50 is less than 100 nM.
Still for that read-out and setting: under `CC(NC(=O)NCCc1ccccc1)c1ccc(C(=O)NO)cc1` (centres unmarked) [Compound I-210, N-hydroxy-4-[1-({[(2-phenylethyl)amino]carbonyl}amino)ethyl]benzamide] stands less than 100 nM; under `CC(NC(=O)C1CCCCCC1)c1ccc(C(=O)NO)cc1` (centres unmarked) [Compound I-213, N-(1-{4-[(hydroxyamino)carbonyl]phenyl}ethyl)cycloheptanecarboxamide], less than 100 nM.
Same read-out and setting: under `CC(C)[C@@H](NC(=O)c1cc2ccccc2s1)c1ccc(C(=O)NO)cc1` [Compound I-214, N-((1R)-1-{4-[(hydroxyamino)carbonyl]phenyl}-2-methylpropyl)-1-benzothiophene-2-carboxamide] stands less than 100 nM.
Still for that read-out and setting: under `CC(C)(C)C(NC(=O)c1cccs1)c1ccc(C(=O)NO)cc1` (centres unmarked) [Compound I-215, N-(1-{4-[(hydroxyamino)carbonyl]phenyl}-2,2-dimethylpropyl)thiophene-2-carboxamide] stands 100 to 500 nM.
The molecule `CC(NC(=O)c1cc2ccccc2n1C)c1cccc(C(=O)NO)c1` (centres unmarked) [Compound I-219, N-(1-{3-[(hydroxyamino)carbonyl]phenyl}ethyl)-1-methyl-1H-indole-2-carboxamide] had an IC50 of 100 to 500 nM.
Still for that read-out and setting: the value for `Cc1[nH]c2c(C)ccc(C)c2c1CC(=O)NC(c1ccc(C(=O)NO)cc1)C(C)C` (centres unmarked) [Compound I-220, N-hydroxy-4-(2-methyl-1-{[(2,4,7-trimethyl-1H-indol-3-yl)acetyl]amino}propyl)benzamide] was 100 to 500 nM.
`CCC[C@@H](NC(=O)c1cc2oc(-c3ccccc3)cc2n1C)c1ccc(C(=O)NO)cc1` [Compound I-222, N-((1R)-1-{4-[(hydroxyamino)carbonyl]phenyl}butyl)-4-methyl-2-phenyl-4H-furo[3,2-b]pyrrole-5-carboxamide] showed an IC50 of less than 100 nM.
Same read-out and setting: the value for `CC(C)[C@@H](NC(=O)C12CC3CC(CC(O)(C3)C1)C2)c1ccc(C(=O)NO)cc1` [Compound I-223, 3-hydroxy-N-((1R)-1-{4-[(hydroxyamino)carbonyl]phenyl}-2-methylpropyl)adamantane-1-carboxamide] was less than 100 nM.
Consider `CC(NC(=O)C1=Cc2ccccc2OC1)c1ccc(C(=O)NO)cc1` (centres unmarked) [Compound I-224, N-(1-{4-[(hydroxyamino)carbonyl]phenyl}ethyl)-2H-chromene-3-carboxamide], for which the IC50 was less than 100 nM.
On the same count and under the same terms, under `COc1cccc(C(=O)NC(C)c2ccc(C(=O)NO)cc2)c1` (centres unmarked) [Compound I-225, N-(1-{4-[(hydroxyamino)carbonyl]phenyl}ethyl)-3-methoxybenzamide] stands less than 100 nM; under `CC(NC(=O)c1cc2cc(Cl)ccc2o1)c1cccc(C(=O)NO)c1` (centres unmarked) [Compound I-226, 5-chloro-N-(1-{3-[(hydroxyamino)carbonyl]phenyl}ethyl)-1-benzofuran-2-carboxamide], 100 to 500 nM.
Still for that read-out and setting: under `CC(NC(=O)c1cc2ccccc2[nH]1)c1cccc(C(=O)NO)c1` (centres unmarked) [Compound I-227, N-(1-{3-[(hydroxyamino)carbonyl]phenyl}ethyl)-1H-indole-2-carboxamide] stands 100 to 500 nM; under `CC(NC(=O)c1sccc1-n1cccc1)c1ccc(C(=O)NO)cc1` (centres unmarked) [Compound I-228, N-(1-{4-[(hydroxyamino)carbonyl]phenyl}ethyl)-3-(1H-pyrrol-1-yl)thiophene-2-carboxamide], less than 100 nM.
For the molecule `O=C(NO)c1ccc([C@H](NC(=O)c2cc3ccccc3s2)C2CC2)cc1` [Compound I-229, N-((R)-cyclopropyl{4-[(hydroxyamino)carbonyl]phenyl}methyl)-1-benzothiophene-2-carboxamide], the IC50 was less than 100 nM.
Same read-out and setting: the value for `Cc1nc2cc(C(=O)NC(C)c3ccc(C(=O)NO)cc3)ccc2s1` (centres unmarked) [Compound I-230, N-(1-{4-[(hydroxyamino)carbonyl]phenyl}ethyl)-2-methyl-1,3-benzothiazole-5-carboxamide] was less than 100 nM.
Still for that read-out and setting: under `Cc1ccccc1S(=O)(=O)NC(C)c1ccc(C(=O)NO)cc1` (centres unmarked) [Compound I-232, N-hydroxy-4-(1-{[(2-methylphenyl)sulfonyl]amino}ethyl)benzamide] stands 100 to 500 nM.
Take `CC(NC(=O)c1ccc2nsnc2c1)c1ccc(C(=O)NO)cc1` (centres unmarked) [Compound I-233, N-(1-{4-[(hydroxyamino)carbonyl]phenyl}ethyl)-2,1,3-benzothiadiazole-5-carboxamide]: the IC50 is less than 100 nM.
`CC(NC(=O)Nc1ccc(C#N)cc1)c1ccc(C(=O)NO)cc1` (centres unmarked) [Compound I-236, 4-[1-({[(4-cyanophenyl)amino]carbonyl}amino)ethyl]-N-hydroxybenzamide] returned an IC50 of less than 100 nM.
Still for that read-out and setting: the value for `Cc1c(C(=O)N[C@H](C)c2ccc(C(=O)NO)cc2)oc2ccccc12` [Compound I-237, N-((1R)-1-{4-[(hydroxyamino)carbonyl]phenyl}ethyl)-3-methyl-1-benzofuran-2-carboxamide] was less than 100 nM; that for `CC(NC(=O)C1CC1)c1ccc(C(=O)NO)cc1` (centres unmarked) [Compound I-239, 4-{1-[(cyclopropylcarbonyl)amino]ethyl}-N-hydroxybenzamide] was 100 to 500 nM.

The IC50 is the concentration that gives 50% inhibition. Lower therefore signals greater potency in that assay.

Source of the values: patent US9382197B2, “Substituted hydroxamic acids and uses thereof” (Millennium Pharmaceuticals, Inc., priority 2010, dated 2016).
